Measurements published in patent US20250034196A1, “ESTER DERIVATIVES OF N4-HYDROXYCYTIDINE AND USE THEREOF” (priority 2021, published 2025).

Experiments:
in vitro [1] = type: in vitro ADME; details: plasma
Description: (§1) Preparation of Solutions: Stock solution (10 mM) of each of test compounds was prepared in DMSO. The stock solution for each compound was then diluted into 100 μM with acetonitrile.
Plasma Incubations: Plasma incubations were conducted in duplicate in 96-well plate at 37° C. Plasma was prewarmed in a total volume of 198 μL for 5 min at 37° C., then added 2 μL of 100 μM test compound into an incubation well containing plasma, pipette-mixed to achieve a homogenous suspension and immediately transferred 20 μL incubate as a 0 min sample to wells in a “Quenching” plate followed by adding 200 μL of acetonitrile with metolazone as internal standard (IS) and pipette-mixing. At 2, 5, 60, and 90 min, pipette-mixed the incubate and serially transfer samples of 20 μL incubate per time point to wells in a separate “Quenching” plate followed by adding 200 μL of acetonitrile with metolazone as IS and pipette-mixing.
(§2) Sample Analysis: The 96-well plate was centrifuged at 6000 g for 10 min. The supernatant was injected onto the LC-MS/MS system for analysis.

in vitro [2] = type: in vitro ADME; details: microsomes, pH 7.4
Description: as §1
(§3) Microsome Incubations: Incubation mixtures were prepared in a total volume of 200 μL with final component concentrations as follows: 0.1M PBS (pH 7.4), NADPH (2 mM) and liver microsomes (0.2 mg/mL) as well as test compound (1 μM) or Molnupiravir (1 μM) as a positive control, wherein the NADPH was added after a 5-min preincubation of all other components at 37° C. Pipette-mixed to achieve a homogenous suspension and immediately transferred 20 μL incubate as a 0 min sample to wells in a “Quenching” plate followed by adding 200 μL of acetonitrile with metolazone as IS and pipette-mixing. At 2, 5, 10, and 45 min, pipette-mixed the incubate and serially transfer samples of 20 μL incubate per time point to wells in a separate “Quenching” plate followed by adding 200 μL of acetonitrile with metolazone as IS and pipette-mixing.
as §2

Microsome stability = type: in vitro ADME, Monkey; details: Monkey liver microsomes 0.2 mg/mL, NADPH, 1 μM
Description: as §1, §3, §2

in vivo = assay: in vivo; parameters: species or system Beagle Dogs; details: dog, po, 22 mg/kg; for AUC(0-inf): AUCINF of CH2107 (Molnupiravir); for AUC(0-t): AUClast of CH2107 (Molnupiravir); for Cmax: Cmax of CH2107 (Molnupiravir); for MRT inf: MRTINF of CH2107 (Molnupiravir); for half-life: T1/2 of CH2107 (Molnupiravir); for Tmax: Tmax of CH2107 (Molnupiravir)
Description: Example 174: Pharmacokinetic Study of EX-2 (CH2101), Molnupiravir (CH2017) and its Metabolite NHC (CH2018) Following a Single PO Administration of EX-2 (CH2101) or Molnupiravir (CH2017) in Male and Female Beagle Dogs
Both test compounds were prepared in 1% methyl cellulose (400 cps, SIGMA, SLCF9694) solution in purified water.
A total of 6 male+6 female Beagle Dogs, approximately 7-13 kg of bodyweight, were originally purchased from Marshall Biotechnology Co., Ltd. The animals were fasted overnight prior to dosing and food was re-provided after 4 hours post dosing.
The animals were restrained manually, and approximately 1 mL of blood at each time point was collected into pre-cooled EDTA-K2 tubes via cephalic or saphenous veins. Blood samples were centrifuged at 4° C. (4000 rpm. 5 min) to obtain plasma within 30 min after sample collection. All samples were stored at approximately −80° C. until analysis. The backup samples will be discarded after the in vivo experiment has been completed for two months unless requested.

SARS-CoV-2 = details: 800 mg twice a day for 5 days, early infected patients; cited from earlier work
in vitro [3] = details: African green monkey
[4] = both sexes, beagle, Plasma concentration of CH2107 (Molnupiravir)
[5] = female, beagle, Plasma concentration of CH2107 (Molnupiravir)
[6] = male, beagle, Plasma concentration of CH2107 (Molnupiravir)

Structure (SMILES): CC(C)C(=O)OC[C@H]1O[C@@H](n2ccc(NO)nc2=O)[C@H](O)[C@@H]1O [Molnupiravir]
- half-life at 1 µM (in vitro [1]; dog): 39.4 min
- half-life at 1 µM (in vitro [1]; human): 66.2 min
- half-life at 1 µM (in vitro [1]; monkey): 25.8 min
- half-life at 1 µM (in vitro [1]; mouse): 25.8 min
- half-life at 1 µM (in vitro [1]; rat): 3.3 min
- half-life at 1 µM (in vitro [2]; dog): 3.9 min
- half-life at 1 µM (in vitro [2]; human): 71.3 min
- half-life at 1 µM (in vitro [2]; mouse): 5.6 min
- half-life at 1 µM (in vitro [2]; rat): 13.8 min
- T1/2 (Microsome stability): 4.7 min
- AUC(0-inf) (in vivo; both sexes, Beagle): 932 ng·h/mL
- AUC(0-t) (in vivo; both sexes, Beagle): 930 ng·h/mL
- Cmax (in vivo; both sexes, Beagle): 1320 ng/mL
- MRT inf (in vivo; both sexes, Beagle): 38.9 min
- half-life (in vivo; both sexes, Beagle): 25.2 min
- concentration at 0.083 hr (in vivo; [4]): 496 ng/mL
- concentration at 0.25 hr (in vivo; [4]): 1300 ng/mL
- concentration at 0.5 hr (in vivo; [4]): 1010 ng/mL
- concentration at 1 hr (in vivo; [4]): 230 ng/mL
- concentration at 2 hr (in vivo; [4]): 28.2 ng/mL
- concentration at 4 hr (in vivo; [4]): 4.75 ng/mL
- concentration at 6 hr (in vivo; [4]): 5.45 ng/mL
- concentration at 8 hr (in vivo; [4]): 1.08 ng/mL
- Tmax (in vivo; both sexes, beagle): 18.8 min
- AUCmale/female of CH2107 (Molnupiravir) (in vivo; both, Beagle): 171%
- AUCmale/female of EX-1/NHC/CH2018 (in vivo; both, Beagle): 128%
- Plasma concentration of EX-1/NHC/CH2018 (in vivo; both, Beagle, 0.083 hr): 527 ng/mL
- Plasma concentration of EX-1/NHC/CH2018 (in vivo; both, Beagle, 0.25 hr): 5653 ng/mL
- Plasma concentration of EX-1/NHC/CH2018 (in vivo; both, Beagle, 0.5 hr): 8040 ng/mL
- Plasma concentration of EX-1/NHC/CH2018 (in vivo; both, Beagle, 1 hr): 8648 ng/mL
- Plasma concentration of EX-1/NHC/CH2018 (in vivo; both, Beagle, 2 hr): 4038 ng/mL
- Plasma concentration of EX-1/NHC/CH2018 (in vivo; both, Beagle, 4 hr): 970 ng/mL
- Plasma concentration of EX-1/NHC/CH2018 (in vivo; both, Beagle, 6 hr): 244 ng/mL
- Plasma concentration of EX-1/NHC/CH2018 (in vivo; both, beagle, 8 hr): 105 ng/mL
- Plasma concentration of EX-1/NHC/CH2018 (in vivo; both, beagle, 24 hr): 18.4 ng/mL
- AUCINF of CH2107 (Molnupiravir) (in vivo; female, Beagle): 778 ng·h/mL
- AUClast of CH2107 (Molnupiravir) (in vivo; female, Beagle): 778 ng·h/mL
- AUC(0-inf) (in vivo; female, Beagle): 598 ng·h/mL
- AUC(0-t) (in vivo; female, Beagle): 596 ng·h/mL
- Cmax (in vivo; female, Beagle): 1080 ng/mL
- Plasma concentration of CH2107 (Molnupiravir) (in vivo; female, beagle, 0.5 hr): 693 ng/mL
- Plasma concentration of CH2107 (Molnupiravir) (in vivo; female, beagle, 1 hr): 120 ng/mL
- Plasma concentration of CH2107 (Molnupiravir) (in vivo; female, beagle, 4 hr): 8.06 ng/mL
- Plasma concentration of CH2107 (Molnupiravir) (in vivo; female, beagle, 6 hr): 5.45 ng/mL
- Plasma concentration of CH2107 (Molnupiravir) (in vivo; female, beagle, 8 hr): 1.08 ng/mL
- concentration at 0.5 hr (in vivo; [5]): 499 ng/mL
- concentration at 1 hr (in vivo; [5]): 207 ng/mL
- concentration at 4 hr (in vivo; [5]): 8.06 ng/mL
- concentration at 6 hr (in vivo; [5]): 5.45 ng/mL
- concentration at 8 hr (in vivo; [5]): 1.08 ng/mL
- Tmax (in vivo; female, beagle): 30 min
- AUCINF of CH2107 (Molnupiravir) (in vivo; male, Beagle): 1246 ng·h/mL
- AUClast of CH2107 (Molnupiravir) (in vivo; male, Beagle): 1245 ng·h/mL
- Cmax of CH2107 (Molnupiravir) (in vivo; male, Beagle): 1680 ng/mL
- MRTINF of CH2107 (Molnupiravir) (in vivo; male, Beagle): 34 min
- T1/2 of CH2107 (Molnupiravir) (in vivo; male, Beagle): 21.1 min
- Plasma concentration of CH2107 (Molnupiravir) (in vivo; male, Beagle, 0.25 hr): 1680 ng/mL
- AUC(0-inf) (in vivo; male, Beagle): 1100 ng·h/mL
- AUC(0-t) (in vivo; male, Beagle): 1100 ng·h/mL
- MRT inf (in vivo; male, Beagle): 27.7 min
- half-life (in vivo; male, Beagle): 12.7 min
- Plasma concentration of CH2107 (Molnupiravir) (in vivo; male, beagle, 0.5 hr): 1430 ng/mL
- Plasma concentration of CH2107 (Molnupiravir) (in vivo; male, beagle, 2 hr): 11.1 ng/mL
- Plasma concentration of CH2107 (Molnupiravir) (in vivo; male, beagle, 4 hr): 1.44 ng/mL
- Cmax (in vivo; male, beagle): 1450 ng/mL
- concentration at 0.25 hr (in vivo; [6]): 1450 ng/mL
- concentration at 0.5 hr (in vivo; [6]): 1420 ng/mL
- concentration at 2 hr (in vivo; [6]): 9.81 ng/mL
- concentration at 4 hr (in vivo; [6]): 1.44 ng/mL
- Tmax (in vivo; male, beagle): 15 min
- Reduction in patients progressing into hospitalizations (SARS-CoV-2): 50%
- CC50 at 4 days (in vitro [3]): > 100 µM
